Among the test systems are SW-620 colon; MOLT-4 leukemia; MDA-MB-231 breast; RPMI-8226 leukemia; 786-0 renal; HCC-2998 colon; SF-295 CNS; NCI-H460 lung; NCI/ADR-RES ovarian; MDA-MB-435; OVCAR-4 ovarian; SF-268 CNS; UO-31 renal; UACC-62 melanoma; HS 578T breast; RXF 393 renal; OVCAR-8 ovarian; SNB-75 CNS; HOP-92 NSCLC; SR leukemia.
Assay in all cases: NCI anticancer screen, dose series, 48 h

Here are results for twelve molecules from PubChem BioAssay (NCI).

Each structure is given as a SMILES string.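 Exposure lasted 48 hours, with cells grown in 96-well plates and compounds tested at five concentrations. TGI: concentration producing complete growth inhibition.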 Where a SMILES comes first, the peptide text is derived from it. The star is where a group is joined. ONb = O=[N+]([O-])c1ccc(CO*)cc1; Boc = CC(C)(C)OC(=O)* A value given as a limit tells only on which side of the number the result lay.

As to `CC1OC(O[C@H]2C3C=CO[C@@H](OC4OC(CO)C(O)C(O)C4O)C3[C@@]3(COC(=O)/C=C/c4ccc(O)cc4)O[C@@H]23)C(O)C(O)C1O` (some centres undefined), the TGI in the assay on SW-620 colon, with MOLT-4 leukemia, with MDA-MB-231 breast, in the assay on RPMI-8226 leukemia, in the assay with 786-0 renal and in the assay with HCC-2998 colon was over 100 µM each time. Moreover, the TGI in the assay with SF-295 CNS, in the assay with NCI-H460 lung, in the assay with NCI/ADR-RES ovarian, in the assay on MDA-MB-435, in the assay with OVCAR-4 ovarian and with SF-268 CNS was over 100 µM in each case. The TGI in the assay with UO-31 renal, with UACC-62 melanoma, in the assay on HS 578T breast, in the assay on RXF 393 renal, in the assay on OVCAR-8 ovarian and in the assay with SNB-75 CNS was over 100 µM in each case. For the same molecule, the TGI with HOP-92 NSCLC was over 100 µM.
As to `O=c1[nH]c(=O)n(C2CC(O)C(CO)O2)cc1C1=NC1` (centres undefined), the TGI in the assay with SW-620 colon, in the assay on MOLT-4 leukemia, in the assay with MDA-MB-231 breast, with RPMI-8226 leukemia, in the assay on 786-0 renal and with HCC-2998 colon was over 100 µM in each case. Further, the TGI with SF-295 CNS, in the assay on NCI-H460 lung, in the assay on NCI/ADR-RES ovarian, in the assay on MDA-MB-435, in the assay on OVCAR-4 ovarian and in the assay with SF-268 CNS was over 100 µM each time. In addition, the TGI with UO-31 renal, in the assay with UACC-62 melanoma, with HS 578T breast, with RXF 393 renal, in the assay with OVCAR-8 ovarian and with SNB-75 CNS was over 100 µM in each case. Further, the TGI in the assay on HOP-92 NSCLC was over 100 µM.
In the case of `C/C(=C/C(=O)Nn1c(Cc2ccccc2)n[nH]c1=O)C(=O)O`, the TGI in the assay with SW-620 colon, in the assay with MOLT-4 leukemia, in the assay with MDA-MB-231 breast, in the assay on RPMI-8226 leukemia, in the assay on 786-0 renal and in the assay with HCC-2998 colon was over 100 µM in each case. Moreover, the TGI in the assay on SF-295 CNS, in the assay with NCI-H460 lung, in the assay on NCI/ADR-RES ovarian, in the assay with MDA-MB-435, in the assay on OVCAR-4 ovarian and with SF-268 CNS was over 100 µM in each case. Further, the TGI in the assay on UO-31 renal, in the assay with UACC-62 melanoma, in the assay on HS 578T breast, in the assay on RXF 393 renal, with OVCAR-8 ovarian and with SNB-75 CNS was over 100 µM in each case.
Turning to `CC1(CCCO)CCCCCCCCCC(C)(CCCO)C1=O` (centres undefined), the TGI with SW-620 colon, in the assay on MOLT-4 leukemia, in the assay with MDA-MB-231 breast, with RPMI-8226 leukemia, with 786-0 renal and in the assay with HCC-2998 colon was over 100 µM each time. For the same molecule, the TGI with SF-295 CNS, in the assay on NCI-H460 lung, in the assay on NCI/ADR-RES ovarian, with MDA-MB-435, in the assay with OVCAR-4 ovarian and in the assay on SF-268 CNS was over 100 µM throughout. Also, the TGI in the assay on UO-31 renal, in the assay on UACC-62 melanoma, with HS 578T breast, in the assay with RXF 393 renal, in the assay with OVCAR-8 ovarian and in the assay with SNB-75 CNS was over 100 µM throughout. Also, the TGI in the assay with HOP-92 NSCLC is over 100 µM.
In the case of `CC(=O)OCC1OC(SC2OC(COC(C)=O)C(OC(C)=O)C(OC(C)=O)C2OC(C)=O)C(OC(C)=O)C(OC(C)=O)C1OC(C)=O` (centres undefined), the TGI in the assay with SW-620 colon, in the assay on MOLT-4 leukemia, with MDA-MB-231 breast, in the assay on RPMI-8226 leukemia, in the assay on 786-0 renal and in the assay with HCC-2998 colon was over 100 µM in each case. For the same molecule, the TGI with SF-295 CNS, in the assay on NCI-H460 lung, in the assay on NCI/ADR-RES ovarian, in the assay with MDA-MB-435, with OVCAR-4 ovarian and with SF-268 CNS was over 100 µM each time. Moreover, the TGI in the assay on UO-31 renal, with UACC-62 melanoma, with SR leukemia, with RXF 393 renal, in the assay on OVCAR-8 ovarian and in the assay on SNB-75 CNS was over 100 µM in each case.
With `CCN1CCN(c2nc3ccc([N+](=O)[O-])cc3nc2C(=O)c2ccccc2)CC1`, the TGI in the assay with SW-620 colon is 41.7 µM; in the assay on MOLT-4 leukemia, over 100 µM; with MDA-MB-231 breast it was 28.7 µM; in the assay on RPMI-8226 leukemia, 30.9 µM; with 786-0 renal, 34.2 µM; with HCC-2998 colon, 28.6 µM. The TGI was determined as 30.3 µM in the assay on SF-295 CNS; 51.4 µM in the assay on NCI-H460 lung; 29.2 µM in the assay with NCI/ADR-RES ovarian; 30.2 µM in the assay with MDA-MB-435; 38 µM in the assay on SF-268 CNS; 25.2 µM with UO-31 renal. Further, the TGI with UACC-62 melanoma turned out to be 31.2 µM; in the assay on SR leukemia it was 31.8 µM; in the assay with RXF 393 renal, 32.8 µM; in the assay on OVCAR-8 ovarian it was 30.5 µM; in the assay with HOP-92 NSCLC, 32.7 µM.
Regarding `Cc1ccc(-n2[nH]nc(C#N)c2=O)cc1`, the TGI with SW-620 colon, in the assay on MOLT-4 leukemia, with MDA-MB-231 breast, in the assay with RPMI-8226 leukemia, with 786-0 renal and with HCC-2998 colon was over 100 µM each time. The TGI in the assay on SF-295 CNS, in the assay with NCI-H460 lung, in the assay on NCI/ADR-RES ovarian, with MDA-MB-435, in the assay on OVCAR-4 ovarian and in the assay with SF-268 CNS was over 100 µM in each case. The TGI in the assay with UO-31 renal, in the assay on UACC-62 melanoma, in the assay with HS 578T breast, with RXF 393 renal, in the assay with OVCAR-8 ovarian and with SNB-75 CNS was over 100 µM throughout.
Turning to `CC(C)CC(NC(=O)OC(C)(C)C)C(=O)NC(CCC(=O)OCc1ccc([N+](=O)[O-])cc1)C(=O)OCc1ccc([N+](=O)[O-])cc1` (stereo not drawn) (Boc-Leu-Glu(ONb)-ONb; configuration not given here), the TGI was over 100 µM in the assay on SW-620 colon; 39.8 µM with MOLT-4 leukemia; over 100 µM in the assay on MDA-MB-231 breast; 88.4 µM in the assay on RPMI-8226 leukemia; 71.5 µM with 786-0 renal; 44.6 µM with HCC-2998 colon. For the same molecule, the TGI in the assay with SF-295 CNS was over 100 µM; in the assay with NCI-H460 lung, 56.1 µM; in the assay with NCI/ADR-RES ovarian it was over 100 µM; in the assay on OVCAR-4 ovarian, over 100 µM; in the assay with SF-268 CNS, 39.3 µM; in the assay with UO-31 renal it was over 100 µM. The TGI was 99.3 µM with UACC-62 melanoma; 37.1 µM in the assay with SR leukemia; over 100 µM with OVCAR-8 ovarian; 31.9 µM in the assay with SNB-75 CNS; over 100 µM with HOP-92 NSCLC.
Take `O=C1CCC(=O)N1n1c(Cc2ccc(Cl)cc2)n[nH]c1=O`: the TGI in the assay on SW-620 colon, in the assay with MOLT-4 leukemia, in the assay on MDA-MB-231 breast, in the assay on RPMI-8226 leukemia, with 786-0 renal and in the assay with HCC-2998 colon was over 100 µM each time. Further, the TGI with SF-295 CNS, in the assay with NCI-H460 lung, in the assay on NCI/ADR-RES ovarian, in the assay with MDA-MB-435, with OVCAR-4 ovarian and in the assay on SF-268 CNS was over 100 µM each time. The TGI in the assay with UO-31 renal, in the assay with UACC-62 melanoma, in the assay with HS 578T breast, in the assay with OVCAR-8 ovarian and in the assay with HOP-92 NSCLC was over 100 µM in each case.
For `Cn1/c(=N\S(=O)(=O)c2ccccc2)n(S(=O)(=O)c2ccccc2)c2ccccc21`, the TGI in the assay with SW-620 colon, with MOLT-4 leukemia, in the assay with MDA-MB-231 breast, in the assay with RPMI-8226 leukemia, in the assay on 786-0 renal and in the assay on SF-295 CNS was over 100 µM in each case. For the same molecule, the TGI with NCI/ADR-RES ovarian, in the assay with MDA-MB-435, with OVCAR-4 ovarian, in the assay on SF-268 CNS, in the assay with UO-31 renal and in the assay with UACC-62 melanoma was over 100 µM throughout. In addition, the TGI with HS 578T breast, in the assay on RXF 393 renal, in the assay with OVCAR-8 ovarian and in the assay on SNB-75 CNS was over 100 µM each time.
As for `CC(=O)O[C@@H]1C2=C(C)C=C(O2)[C@H]2O[C@]2(C)C[C@H]2C=C(C(=O)O2)[C@H](OC(C)=O)CC1[C@@]1(C)CO1` (some centres undefined), the TGI in the assay on SW-620 colon was 26.1 µM; in the assay with MOLT-4 leukemia, 25.2 µM; in the assay with MDA-MB-231 breast, 78.8 µM; in the assay with RPMI-8226 leukemia it was 33.9 µM; with 786-0 renal, 77.1 µM; in the assay with HCC-2998 colon, over 100 µM. The TGI was over 100 µM in the assay on SF-295 CNS; over 100 µM with NCI-H460 lung; over 100 µM with NCI/ADR-RES ovarian; 71.8 µM in the assay with MDA-MB-435; over 100 µM in the assay with OVCAR-4 ovarian; over 100 µM in the assay with SF-268 CNS. Also, the TGI in the assay on UO-31 renal was 51.4 µM; in the assay with UACC-62 melanoma, 56.3 µM; in the assay on SR leukemia, 47.5 µM; with RXF 393 renal it was 36.8 µM; with OVCAR-8 ovarian, over 100 µM; in the assay with SNB-75 CNS it was over 100 µM.
As to `O=C(O)c1cnc2[nH]ccn2c1=O`, the TGI in the assay with SW-620 colon, in the assay on MOLT-4 leukemia, in the assay on MDA-MB-231 breast, in the assay with RPMI-8226 leukemia, in the assay on 786-0 renal and in the assay with HCC-2998 colon was over 100 µM in each case. Besides, the TGI with SF-295 CNS, with NCI-H460 lung, in the assay on NCI/ADR-RES ovarian, in the assay with MDA-MB-435, with OVCAR-4 ovarian and with SF-268 CNS was over 100 µM each time. Further, the TGI with UO-31 renal, with UACC-62 melanoma, with SR leukemia, in the assay with OVCAR-8 ovarian, with SNB-75 CNS and with HOP-92 NSCLC was over 100 µM throughout.
